The values below come from patent US7795220B2, “Conformationally constrained parathyroid hormones with alpha-helix stabilizers” (The General Hospital Corporation, priority 2003, dated 2010).

Non-standard residues stand in square brackets, D forms with d. Residues, ends and D or L forms follow the SMILES beside them. hArg = N=C(N)NCCCC[C@H](N)C(=O)O; Ac5c = NC1(C(=O)O)CCCC1; Aib = CC(C)(N)C(=O)O

In one assay the target is T1, hP1R-delNt (Homo sapiens, UniProt Q03431).
T1 construct: expressed in transfected cells
T1 sequence (Q03431 with tags, fused parts or gaps limits assumed): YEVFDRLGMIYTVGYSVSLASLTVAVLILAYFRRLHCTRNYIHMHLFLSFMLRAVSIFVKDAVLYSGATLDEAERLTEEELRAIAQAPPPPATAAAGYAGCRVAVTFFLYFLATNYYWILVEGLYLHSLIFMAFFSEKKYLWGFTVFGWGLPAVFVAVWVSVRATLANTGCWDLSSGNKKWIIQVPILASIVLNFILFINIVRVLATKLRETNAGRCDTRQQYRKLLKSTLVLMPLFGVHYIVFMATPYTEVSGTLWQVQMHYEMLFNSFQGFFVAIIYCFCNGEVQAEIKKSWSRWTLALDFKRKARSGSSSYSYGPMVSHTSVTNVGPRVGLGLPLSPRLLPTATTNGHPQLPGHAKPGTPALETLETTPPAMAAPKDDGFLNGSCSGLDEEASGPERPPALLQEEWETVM
Description: cAMP stimulation in LdelNt-2 cells. The format is cell-based. From the text:
(§1) Cell Culture. The cell line HKRK-B28 (Takasu, H., et al., J. Bone Miner. Res. 14:11-20 (1999)) was derived from the porcine kidney cell line, LLC-PK1 by stable transfection with plasmid DNA encoding a recombinant P1R chimera comprised of the opposum P1R from the N-terminus to the mid region of TM3 and the rat P1R from the mid region of TM3 to the C-terminus. The surface density of the P1R in these cells is ˜280,000 receptors per cell. The clonal cell line LdelNt-2 was derived from LLC-PK, cells via stable transfection with a plasmid encoding P1R-delNt, a recombinant human PTH-1 receptor construct in which most of the amino-terminal extracellular domain is deleted. These cells, as well as COS-7 cells and SaOS-2-B10 cells, were cultured at […] in T-75 flasks ([…]) in Dulbecco's modified Eagle's medium (DMEM) supplemented with fetal bovine serum (10%), penicillin G (20 units/ml), streptomycin sulfate (20 μg/ml) and amphotericin B (0.05 μg/ml) in a humidified atmosphere containing 5% CO2. Stock solutions of EGTA/trypsin and antibiotics were from GLBCO; fetal bovine serum was from Hyclone Laboratories (Logan, Utah). COS-7 cells sub-cultured in 24-well plates were transfected with plasmid DNA (200 ng per well) encoding the wild-type human P1R or truncated human P1R deleted for residues (24-181) (Shimizu, M., et al., J. Biol. Chem. 275:21836-21843 (2000)) that was purified by cesium chloride/ethidium bromide density gradient centrifugation, and FuGENE 6 transfection reagent (Roche Indianapolis Ind.) according to the manufacturer's recommended procedure. All cells, in 24-well plates, were treated with fresh media and shifted to 33° C. for 12 to 24 h prior to assay.
(§2) cAMP Stimulation. Stimulation of cells with peptide analogs was performed in 24-well plates. Cells were rinsed with 0.5 mL of binding buffer (50 mM Tris-HCl, 100 mM NaCl, 5 mM KCl, 2 mM CaCl2, 5% heat-inactivated horse serum, 0.5% fetal bovine serum, adjusted to pH 7.5 with HCl) and treated with 200 μL of cAMP assay buffer (Delbecco's modified Eagle's medium containing 2 mM 3-isobutyl-1-methylxanthine, 1 mg/mL bovine serum albumin, 35 mM Hepes-NaOH, pH 7.4) and 100 μL of binding buffer containing varying amounts of peptide analog (final volume=300 μL). The medium was removed after incubation for 30 to 60 minutes at room temperature, and the cells were frozen on dry ice, lysed with 0.5 mL 50 mM HCl, and refrozen ([…]). The cAMP content of the diluted lysate was determined by radioimmunoassay. The EC50 response values were calculated using nonlinear regression (see below).
(§3) Data Calculation. Calculations were performed using Microsoft® Excel. Nonlinear regression analyses of binding and cAMP dose-response data were performed using the four-parameter equation: yp=Min+[(Max−Min)/(1+(IC50/x)^slope)]. The Excel Solver function was utilized for parameter optimization, as described previously (Carter, P. H., et al., Endocrinology 140: 4972-4981 (1999); Bowen, W. P., and Jerman, J. C., Trends in Pharmacol. Sci. 16: 413-417 (1995)). Differences between paired data sets were statistically evaluated using a one-tailed Student's t-test, assuming unequal variances for the two sets.
Agonist activities of selected analogs in cells expressing P1R-delNt were examined. This PTH-1 receptor construct lacks most of the N domain, but nevertheless mediates full agonist responses to N-terminally modified PTH analogs, and thus enables the relative roles of the receptor's N and J domains to the ligand interaction process to be evaluated. The clonal cell line LdelNT-2 was used, which was derived from LLC-PK, cells by stable transfection with a plasmid encoding the human P1R-delNt construct.

Assay [1] concerns P1R (recombinant P1R chimera) in HKRK-B28 cells. The assay can be described thus: cAMP stimulation in HKRK-B28 cells. The format is cell-based, opposum/rat chimera.
From the text: as §1, §2, §3

Take `CC[C@H](C)[C@H](NC(=O)[C@H](CCC(=O)O)NC(=O)C(C)(C)NC(=O)[C@@H](NC(=O)C1(N)CCCC1)C(C)C)C(=O)N[C@@H](CCC(N)=O)C(=O)N[C@@H](CC(C)C)C(=O)N[C@@H](CCSC)C(=O)N[C@@H](Cc1c[nH]cn1)C(=O)N[C@@H](CCC(N)=O)C(=O)N[C@@H](CCCCNC(=N)N)C(=O)N[C@@H](C)C(=O)N[C@@H](CCCCN)C(=O)N[C@@H](Cc1c[nH]c2ccccc12)C(N)=O` [[Ac5c^1,Aib^3,M]PTH(1-14), [Ac5c^1,Aib^3,Gln^10,Har^11,Ala^12,Trp^14]PTH(1-14)NH2] (H-[Ac5c]V[Aib]EIQLMHQ[hArg]AKW-NH2): on hP1R-delNt, it took 6.4 ± 2.3 nM to reach a half-maximal effect (EC50), the “increase in cAMP accumulation (Emax) over basal” value turned out to be 70 fold and the “maximum cAMP response” value is recorded as 125±19 picomoles of cAMP per well. Besides, in assay [1], the “potency for stimulating adenylyl cyclase relative to [Aib1,3,M]PTH(1-14)” value was 2 fold. Also, the EC50 in assay [1] (HKRK-B28 cells, intracellular cAMP accumulation, read-out: cAMP-stimulating potency (EC50)) turned out to be 0.9 nM. In addition, in assay [1] (HKRK-B28 cells, peptide at 10 nM), the “increase in cAMP levels relative to basal” value was determined as 38 fold.

Broadly, the EC50 is the concentration that produces a half-maximal response.
